Assay results taken from US11229633B2, “Arimoclomol formulation” (Orphazyme A/S, priority 2014, dated 2022).
“Also recorded” adds a separate entry of the source.

Biological target: T1, OATP1B1 (Homo sapiens, UniProt Q9Y6L6)
T1 sequence (Q9Y6L6 1-691): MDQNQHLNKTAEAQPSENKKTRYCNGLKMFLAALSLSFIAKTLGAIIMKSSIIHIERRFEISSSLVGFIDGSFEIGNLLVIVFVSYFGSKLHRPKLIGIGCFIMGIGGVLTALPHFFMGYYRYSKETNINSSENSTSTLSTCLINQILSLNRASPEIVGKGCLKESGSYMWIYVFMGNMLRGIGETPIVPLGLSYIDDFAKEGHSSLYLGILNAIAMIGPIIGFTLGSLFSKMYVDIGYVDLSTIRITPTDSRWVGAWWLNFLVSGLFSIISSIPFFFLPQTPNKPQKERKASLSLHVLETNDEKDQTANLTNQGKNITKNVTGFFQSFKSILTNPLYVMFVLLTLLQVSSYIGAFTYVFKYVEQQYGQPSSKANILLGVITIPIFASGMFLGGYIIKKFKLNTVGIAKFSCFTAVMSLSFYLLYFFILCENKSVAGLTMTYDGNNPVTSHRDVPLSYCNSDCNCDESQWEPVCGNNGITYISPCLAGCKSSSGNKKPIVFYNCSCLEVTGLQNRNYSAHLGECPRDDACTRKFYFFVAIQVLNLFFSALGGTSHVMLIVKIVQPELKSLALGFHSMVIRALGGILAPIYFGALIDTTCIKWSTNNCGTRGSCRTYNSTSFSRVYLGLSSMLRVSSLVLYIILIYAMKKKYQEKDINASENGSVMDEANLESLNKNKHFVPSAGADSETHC
Experiment: Uptake transporter inhibition assay, OATP1B1
Assay type: in vitro ADME
Parameters: expressed in transfected cells; host or cells: HEK293 (protocol UPT-HEK293-OATP1B1-E217βG; control: mock-transfected HEK293 FT); key to maximum inhibition: NIO: No interaction observed
Settings: for maximum inhibition: 0.3-300 μM
Protocol: Uptake experiments were performed using CHO, MDCKII, or HEK293 cells stably expressing the respective uptake transporters.
Cells were cultured at 37±1° C. in an atmosphere of 95:5 air:CO2 and were plated onto standard 96-well tissue culture plates at the cell number described in table 4.
Before the experiment, the medium was removed and the cells were washed twice with 100 μl of HK buffer at pH 7.4 (prepared from Sigma chemicals, Sigma-Aldrich, St Louis, Mo.). Uptake experiments were carried out at 37±1° C. in 50 μl of HK buffer (pH 7.4) containing the probe substrate and the TA or vehicle control (water).
After the experiment, cells were washed twice with ice cold, 100 μl of HK buffer and lysed with 50 μl of 0.1 M NaOH (1 mM CaCl2) in 5% SDS in the case of OATP1B3). Fluo-3 transport (OATP1B3) was determined by measuring fluorescence using 485 nm and 520 nm as the excitation and emission wavelengths, respectively. Radiolabelled probe substrate transport was determined by measuring an aliquot (35 μl) from each well for liquid scintillation counting.
Uptake of the probe substrate in control cells provided background activity values for all data points. Incubation without TA or reference inhibitor (solvent only) provided 100% activity values. A reference inhibitor served as positive control for inhibition.
The amount of translocated probe substrate was determined for each well in cpm or RFU. Relative activities were calculated from the equation:
[formula] A: amount of translocated substrate in the presence of TA in transfected cells B: amount of translocated substrate in the presence of TA in control cells C: amount of translocated substrate in the presence of solvent in transfected cells D: amount of translocated substrate in the presence of solvent in control cells Calculation of Fold Accumulation Values
In uptake transporter inhibition assays, the IC50 (μM) was calculated, where applicable. […]

[O-][n+]1cccc(C(Cl)=NOCC(O)CN2CCCCC2)c1 (stereo not drawn) [Arimoclomol, N-[2-hydroxy-3-(1-piperidinyl)-propoxy]-pyridine-1-oxide-3-carboximidoyl chloride]
maximum inhibition (Table 2): NIO | maximum inhibition (Table 5): NIO | Influence on OATP1B1-mediated probe substrate accumulation (in words) (applied concentrations): did not influence; also recorded: not an inhibitor
